Results on twelve compounds are retold here after US9926276B2, “Substituted benzamides with activity towards EP4 receptors” (DRACONIS PHARMA, S.L., priority 2013, dated 2018).

Assay [1] addresses T1, human EP4 receptor (Homo sapiens, UniProt P35408). Put plainly: Measurement of cAMP responses by Homogeneous Time Resolved Fluorescence (Test 2). Format: cell-based. Details: expressed in transfected cells. The settings on record: for inhibition at 10 µM: HEK293, PGE2 1 nM, HEK-293 cells stably expressing human EP4, read-out: Results of Test 2 (Functional assay, antagonist % inh); for Results of Test 2 (Functional assay, antagonist % inh): at 10 μM, PGE2 1 nM, HEK-293 cells stably expressing human EP4. How it is done:
Test 2: Measurement of cAMP Responses by Homogeneous Time Resolved Fluorescence
cAMP measurements on HEK-293 cells that stably expressed human EP4 receptors were performed by using a system based on Homogeneous Time Resolved Fluorescense (HTRF). This technology allows the direct measurement of cAMP in living cells. The principle of this assay is based on competition between cAMP produced by cells and cAMP-d2 conjugate for the binding with monoclonal anti-cAMP-cryptate conjugate. The HTRF cAMP kit from CisBio was used according to the manufacturer's directions. The experimental procedure was performed as stated below.
Suspended cells (30,000 cells per well) were added to 96-well culture plates in 30 μl of Optimem supplemented with 500 μM IBMX. Compounds were then added in 10 μl of stimulation buffer and incubated at 25° C. for 30 minutes followed by 10 μl of PGE2 to a final concentration of 1 nM. After 30 minutes at 25° C., the reaction was stopped lysing the cells with a mixture of 25 μl of cryptate and 25 μl of cAMP-d2 prepared in the lysis buffer supplied by the manufacturer. Plates were incubated for an additional hour at room temperature and read at 665 nm/620 nm using an UltraEvolution Plate reader (Tecan).
Antagonist percentage inhibition was calculated relating compounds activity to the 0% inhibition of the wells incubated with 1 nM PGE2 alone and 100% inhibition of the wells incubated with 1 nM PGE2 plus 1 μM of the reference antagonist.

Assay [2] has as its target T1, human EP4 receptor. In words: Human EP4 receptor radioligand binding assay (Test 1). Also on record: expressed in transfected cells; host or cells: HEK-293 cell membranes. The settings on record: [3H]-PGE2 1 nM, transfected HEK-293 cell membranes; for inhibition at 10 µM: read-out: Results of Test 1 (Binding assay, % inh); for Results of Test 1 (Binding assay, % inh): at 10 μM. How it is done:
Test 1: Human EP4 Receptor Radioligand Binding Assay
To investigate binding properties of EP4 receptor ligands to human EP4 receptor, transfected HEK-293 cell membranes and [3H]-PGE2 (Perkin Elmer) were used. In 96-well plates the assay was carried out with a total reaction volume of 250 μl, containing 25 μl of membrane suspension (30 μg protein/well), 25 μl of [3H]-PGE2 (1 nM) in either absence or presence of 25 μl of either buffer or PGE2 (10 μM) for total and non-specific binding, respectively. Binding buffer contained 25 mM MES, 10 mM MgCl2 and 1 mM EDTA at pH 6.0. Plates were incubated at 25° C. for 120 minutes. After the incubation period, 200 μl of incubate were transferred to MultiScreen HTS, FB plates (Millipore), filtered and plates were washed 6 times with ice-cold 10 mM MES, 0.01% BSA at pH 6.0. Filters were dried and counted in a MicroBeta scintillation counter (Perkin-Elmer) using EcoScint liquid scintillation cocktail.
Percentage inhibition was calculated relating compounds activity to the 0% inhibition of the wells incubated with 1 nM [3H]-PGE2 alone (total binding) and 100% inhibition of the wells incubated with 1 nM [3H]-PGE2 plus 10 μM PGE2 (non-specific binding).

Each structure is given as a SMILES string.

T1 sequence (P35408 whole entry): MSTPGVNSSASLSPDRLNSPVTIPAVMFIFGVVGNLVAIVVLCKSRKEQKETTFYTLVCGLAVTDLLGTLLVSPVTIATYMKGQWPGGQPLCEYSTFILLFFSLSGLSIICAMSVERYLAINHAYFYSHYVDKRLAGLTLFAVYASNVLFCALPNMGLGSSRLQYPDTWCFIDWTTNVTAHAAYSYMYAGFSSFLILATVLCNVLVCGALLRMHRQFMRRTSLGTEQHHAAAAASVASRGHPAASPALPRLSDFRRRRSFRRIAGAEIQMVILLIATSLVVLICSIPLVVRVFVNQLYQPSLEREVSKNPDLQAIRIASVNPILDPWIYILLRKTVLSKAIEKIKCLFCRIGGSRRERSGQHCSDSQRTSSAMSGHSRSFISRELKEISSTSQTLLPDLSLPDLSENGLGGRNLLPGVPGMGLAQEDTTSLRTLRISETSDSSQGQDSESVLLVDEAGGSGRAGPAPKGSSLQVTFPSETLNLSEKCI

On to `O=C(O)c1cc(Cl)c(NC(=O)c2cc(OCc3ccc(F)cc3F)ccc2Cl)c(Cl)c1` [Example 35, 3,5-Dichloro-4-(2-chloro-5-(2,4-difluorobenzyloxy)benzamido)benzoic acid], for which the inhibition at 10 µM on human EP4 receptor [1] and on human EP4 receptor [2] was greater than 75% in each case.

As for `O=C(O)c1cc(Cl)c(NC(=O)c2cc(OCc3ccc(Cl)cc3F)ccc2Cl)c(Cl)c1` [Example 36, 3,5-Dichloro-4-(2-chloro-5-(4-chloro-2-fluorobenzyloxy)benzamido)benzoic acid], the inhibition at 10 µM on human EP4 receptor [1] and on human EP4 receptor [2] was greater than 75% each time.

Regarding `Cc1ccc(C(=O)O)cc1NC(=O)c1cc(-c2cccc(Cl)c2)ccc1C` [Example 38, 3-(3′-Chloro-4-methylbiphenyl-3-ylcarboxamido)-4-methylbenzoic acid], the “Results of Test 2 (Functional assay, antagonist % inh)” value on human EP4 receptor [1] was “$ (% inh >75)”. Besides, on human EP4 receptor [2], the “Results of Test 1 (Binding assay, % inh)” value was “# (% inh >75)”.

Turning to `Cc1ccc(C(=O)O)cc1NC(=O)c1nc(-c2cccc(Cl)c2)ccc1Cl` [Example 42, 3-(3-Chloro-6-(3-chlorophenyl)picolinamido)-4-methylbenzoic acid], the inhibition at 10 µM at human EP4 receptor [1] and on human EP4 receptor [2] was greater than 75% throughout.

As to `Cc1ccc(-c2cccc(Cl)c2)cc1C(=O)Nc1cc(C(=O)O)ccc1C(C)C` [Example 45, 3-(3′-Chloro-4-methylbiphenyl-3-ylcarboxamido)-4-isopropylbenzoic acid], the “Results of Test 2 (Functional assay, antagonist % inh)” value on human EP4 receptor [1] is listed as “$ (% inh >75)”. Besides, the “Results of Test 1 (Binding assay, % inh)” value at human EP4 receptor [2] is reported as “# (% inh >75)”.

Turning to `CC(C)c1ccc(C(=O)O)cc1NC(=O)c1cc(-c2cccc(Cl)c2)ccc1Cl` [Example 46, 3-(3′,4-Dichlorobiphenyl-3-ylcarboxamido)-4-isopropylbenzoic acid], on human EP4 receptor [1], the “Results of Test 2 (Functional assay, antagonist % inh)” value is recorded as “$ (% inh >75)”. Moreover, the “Results of Test 1 (Binding assay, % inh)” value at human EP4 receptor [2] is on record as “# (% inh >75)”.

As to `O=C(O)c1cc(Cl)c(NC(=O)c2nc(-c3cccc(Cl)c3)ccc2Cl)c(Cl)c1` [Example 47, 3,5-Dichloro-4-(3-chloro-6-(3-chlorophenyl)picolinamido)benzoic acid], the inhibition at 10 µM at human EP4 receptor [1] and at human EP4 receptor [2] was greater than 75% throughout.

`Cc1cc(C(=O)O)cc(Cl)c1NC(=O)c1nc(-c2cccc(Cl)c2)ccc1Cl` [Example 48, 3-Chloro-4-(3-chloro-6-(3-chlorophenyl)-picolinamido)-5-methylbenzoic acid]: the inhibition at 10 µM at human EP4 receptor [1] and on human EP4 receptor [2] was greater than 75% each time.

On to `O=C(O)c1cc(Cl)c(NC(=O)c2nc(N3CCCCC3)ccc2Cl)c(Cl)c1` [Example 57, 3,5-Dichloro-4-(3-chloro-6-(piperidin-1-yl)picolinamido)benzoic acid], for which the inhibition at 10 µM on human EP4 receptor [1] and on human EP4 receptor [2] was greater than 75% each time.

Consider `Cc1ccc(-c2cccc(C(F)(F)F)c2)cc1C(=O)Nc1c(C)cc(C(=O)[O-])cc1C.[Na+]` [Example 58, Sodium 3,5-dimethyl-4-(4-methyl-3′-(trifluoromethyl)biphenyl-3-ylcarboxamido)benzoate], for which the “Results of Test 2 (Functional assay, antagonist % inh)” value at human EP4 receptor [1] is “$ (% inh >75)”. Besides, at human EP4 receptor [2], the “Results of Test 1 (Binding assay, % inh)” value was “# (% inh >75)”.

For `COc1cc(Cl)cc(-c2ccc(C)c(C(=O)Nc3c(C)cc(C(=O)O)cc3C)c2)c1` [Example 59, 4-(3′-Chloro-5′-methoxy-4-methylbiphenyl-3-ylcarboxamido)-3,5-dimethylbenzoic acid], at human EP4 receptor [1], the “Results of Test 2 (Functional assay, antagonist % inh)” value was “$ (% inh >75)”. On human EP4 receptor [2], the “Results of Test 1 (Binding assay, % inh)” value is listed as “# (% inh >75)”.

Consider `O=C(O)c1cc(Cl)c(NC(=O)c2cc(-c3nccc(C(F)(F)F)n3)ccc2Cl)c(Cl)c1` [Example 60, Sodium 3,5-dichloro-4-(2-chloro-5-(4-(trifluoromethyl)pyrimidin-2-yl)benzamido)benzoate], for which the inhibition at 10 µM at human EP4 receptor [1] and at human EP4 receptor [2] was greater than 75% throughout.
